Like-named read-outs stand apart in the source and are kept apart here.
Experiments:
[1] = molecular target: T1, rabbit muscle glycogen phosphorylase b (rmGPb) (Oryctolagus cuniculus, UniProt P00489); set-up: method as in PMID 26713107; conditions: cited from earlier work
T1 sequence (P00489 1-843): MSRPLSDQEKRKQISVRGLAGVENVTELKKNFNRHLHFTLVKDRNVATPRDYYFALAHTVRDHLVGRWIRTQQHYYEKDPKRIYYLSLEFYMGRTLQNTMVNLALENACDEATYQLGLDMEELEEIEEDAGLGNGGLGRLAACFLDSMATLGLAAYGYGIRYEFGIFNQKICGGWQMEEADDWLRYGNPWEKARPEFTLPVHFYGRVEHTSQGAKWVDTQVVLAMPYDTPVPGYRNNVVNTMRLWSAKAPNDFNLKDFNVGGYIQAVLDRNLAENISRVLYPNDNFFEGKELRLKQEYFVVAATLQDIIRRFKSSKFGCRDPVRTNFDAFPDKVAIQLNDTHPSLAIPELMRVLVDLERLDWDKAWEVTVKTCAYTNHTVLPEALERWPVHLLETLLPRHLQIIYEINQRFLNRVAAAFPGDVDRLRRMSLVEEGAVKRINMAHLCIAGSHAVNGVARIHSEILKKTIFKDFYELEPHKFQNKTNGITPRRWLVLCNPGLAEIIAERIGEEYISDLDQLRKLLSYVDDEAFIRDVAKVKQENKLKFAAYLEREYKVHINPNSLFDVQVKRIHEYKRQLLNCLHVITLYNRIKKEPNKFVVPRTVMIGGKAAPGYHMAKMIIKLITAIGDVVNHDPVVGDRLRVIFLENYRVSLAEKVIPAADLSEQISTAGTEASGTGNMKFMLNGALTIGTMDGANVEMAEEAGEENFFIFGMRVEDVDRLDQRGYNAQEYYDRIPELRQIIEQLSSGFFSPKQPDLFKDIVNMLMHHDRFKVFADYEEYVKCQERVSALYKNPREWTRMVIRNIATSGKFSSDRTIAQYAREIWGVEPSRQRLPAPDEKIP

[2] = molecular target: T1, rabbit muscle glycogen phosphorylase b (rmGPb); test: Glycogen phosphorylase binding assay (enzyme kinetics in the direction of glycogen synthesis); format: biochemical
Experimental: The determined IC50 values are shown in Table 1, together with the previously determined Ki value for benchmark compound 1. […] Towards understanding the observed potencies, extensive computations on the bound and unbound states of the ligands were performed.
Enzyme activity was assayed into the direction of glycogen synthesis as previously presented. Kinetic data were collected using the muscle phosphorylase b (dephosphorylated, GPb) isoform. Kinetic data for the inhibition of GPb by the compounds were obtained in the presence of 10 μg/mL enzyme, varying concentrations of α-D-glucose-1-phosphate (4–40 mM), constant concentration (1%) of glycogen and AMP (1 mM). Enzymatic activities were presented in the form of a double-reciprocal plot (Lineweaver-Burk). The plots were analysed by a non-linear data analysis program. The inhibitor constants (Ki) were determined by secondary plots, replotting the slopes from the Lineweaver-Burk plot against the inhibitor concentrations. The means of standard errors for all calculated kinetic parameters averaged to less than 10% [48, 49].

OC[C@H]1O[C@@H](c2cc(-c3ccccc3)n[nH]2)[C@H](O)[C@@H](O)[C@@H]1O [Compound 2]
IC50 [1]: 850 µM

N=C(N)Nc1c([C@@H]2O[C@H](CO)[C@@H](O)[C@H](O)[C@H]2O)n[nH]c1-c1ccccc1 [Compound 4, 3-(β-D -Glucopyranosyl)-4-guanidino-5-phenyl-1H-pyrazole]
inhibition of rmGPb ([2]; at 625 µM concentration, 625 µM): no inhibition at 625 µM

Nc1c([C@@H]2O[C@H](CO)[C@@H](O)[C@H](O)[C@H]2O)n[nH]c1-c1ccccc1 [Compound 3, 4-Amino-3-(β-D -glucopyranosyl)-5-phenyl-1H-pyrazole]
IC50 ([2]; rmGPb): 565 µM
